Entries after “also recorded” stand apart in the source; their conditions may differ. Read-outs that look alike come from different tables or passages of the source.
Columns and labels:
male CF-1 mice [1] = assay: Anesthesia in mice (median anesthetic concentration AC50); format: in vivo, mouse (male CF-1); conditions: inhalation, 5 min
Description: (§1) If anesthesia occurred, the median anesthetic concentration (AC50) was established. Another thirty mice were treated similarly to establish the median lethal concentration (LC50). The concentrations were calculated from the volume used and density of the test compound and the volume of air (6.3 l) in the test jar using the ideal gas law. The results for the convulsant ethers are given in Table 1; Tables 2 and 3 contain the results for related nonconvulsant ethers, most of which are good anesthetic agents.

male CF-1 mice [2] = assay: Lethality in mice (median lethal concentration LC50); format: in vivo, mouse (male CF-1); conditions: for MOUSE LC50: inhalation, 5 min
Description: as §1

male CF-1 mice [3] = assay: Convulsions in mice, 5 min inhalation exposure to test compound in air; format: in vivo, mouse (male CF-1); conditions: for ADDITIONAL REMARKS: type of convulsions and other effects: Table 1; for MOUSE CONVULSANT CONC., VOL. %: inhalation, 5 min
Description: as §1

Stability to heat = format: physicochemical
Description: which can be treated with about a 0.4 molar equivalent of bromine trifluoride at -5° C to give the ether V (See Examples 8 and 9).

dogs = assay: Convulsions / other effects in dogs; format: in vivo, dog
[4] = test system: flurothyl induced convulsions; conditions: footnote 5 (Krantz et al.); cited from earlier work
[5] = footnote 3 (Aldrich and Sheppard); cited from earlier work
male CF-1 mice [6] = conditions: footnote 5 (Krantz et al.); cited from earlier work
male CF-1 mice [7] = conditions: footnote 5 (Krantz et al.); cited from earlier work; remark: listed apart in the source

| Compound | MOUSE AC50 (median anesthetic concentration) (male CF-1 mice [1]) [VOL. %] | MOUSE LC50 (male CF-1 mice [2]) [VOL. %] | also measured |
| --- | --- | --- | --- |
| COCC(F)(F)C(F)(F)F [XIX, methyl 2,2,3,3,3-pentafluoropropyl ether] | 11 | 16 |  |
| FC(F)OCC(F)(F)C(F)F [I, Difluoromethyl 2,2,3,3-tetrafluoropropyl ether] |  | 3.2 | ADDITIONAL REMARKS: type of convulsions and other effects (male CF-1 mice [3]): CLONIC CONVULSIONS; MOUSE CONVULSANT CONC., VOL. % (male CF-1 mice [3]): 1.0 VOL. %; stability to heat compared with V (Stability to heat): more stable than V to heat |
| FC(F)OC(F)(C(F)F)C(F)F [IV, Difluromethyl 1,1,2,3,3-pentafluoro-2-propyl ether] |  | 5.3 | ADDITIONAL REMARKS: type of convulsions and other effects (male CF-1 mice [3]): C[…] SEDATION; MOUSE CONVULSANT CONC., VOL. % (male CF-1 mice [3]): 1.2 VOL. %; ADDITIONAL REMARKS: convulsions in dogs (dogs): OPI[…]. IN DOGS; stability to heat compared with V (Stability to heat): more stable than V to heat |
| COC(C(F)(F)F)C(F)(F)F [XXI] | 2.2 | 9.0 | antagonist to flurothyl (induced convulsions) [4]: ANTAGONIST; ADDITIONAL REMARKS: convulsions in dogs (dogs): NON[…] DOGS |
| COC(C(F)F)C(F)(F)F (stereo not shown) [XXII] | 1.5 | 6.9 |  |
| FC(F)OC(F)C(F)(F)C(F)(F)F (stereo not shown) [IX] | 4.3 | > 9.9 |  |
| FC(F)OC(C(F)F)C(F)(F)F (stereo not shown) [XI] | 0.84 | 4.9 |  |
| COC(F)(F)C(F)C(F)(F)F (stereo not shown) [XVIII, methyl 1,1,2,3,3,3-hexafluoropropyl ether] | 3.9 | > 8.0 |  |
| FCOC(C(F)F)C(F)(F)F (stereo not shown) [XVI] | 0.84 | 5.1 |  |
| FCOC(C(F)(F)F)C(F)(F)F [XV] | 1.4 | 8.5 | ADDITIONAL REMARKS: convulsions in dogs (dogs): NON[…] DOGS |
| COC(C(F)F)C(F)F [XXIII] | 1.4 | > 7.8 |  |
| FC(F)OC(C(F)F)C(F)F [XII] | 0.64 | 3.8 |  |
| COCC(F)(F)C(F)F [XX] | 2.5 | 7.0 |  |
| FC(F)C(F)(F)COC(F)(F)F [VI] |  | ≤ 0.5 | MOUSE CONVULSANT CONC., VOL. % (male CF-1 mice [3]): ≤ 0.5 VOL. %; ADDITIONAL REMARKS: convulsions and death [5]: VIOLENT C[…] DEATH; ADDITIONAL REMARKS: time of convulsions and death [5]: 30 to 120 s |
| FC(F)OCC(F)(F)C(F)(F)F [II, Difluoromethyl 2,2,3,3,3-pentafluoropropyl ether] |  | > 4.2 | ADDITIONAL REMARKS: type of convulsions and other effects (male CF-1 mice [3]): CLONIC AND TONIC CONVULSIONS; also recorded: CATALEPSY; MOUSE CONVULSANT CONC., VOL. % (male CF-1 mice [3]): 1.4 VOL. %; stability to heat compared with V (Stability to heat): more stable than V to heat |
| FC(F)OC(F)(F)C(F)C(F)(F)F (stereo not shown) [III, Difluoromethyl 1,1,2,3,3,3-hexafluoropropyl ether] |  | > 12 | MOUSE CONVULSANT CONC., VOL. % (male CF-1 mice [3]): 2.0 VOL. %; stability to heat compared with V (Stability to heat): more stable than V to heat |
| FC(F)(F)COCC(F)(F)F [VII, fluorothyl] |  |  | ADDITIONAL REMARKS: type of convulsions and other effects (male CF-1 mice [3]): CLONIC AND TONIC CONVULSIONS; ADDITIONAL REMARKS: time of convulsions (male CF-1 mice [3]; clonic and tonic convulsions): 30 s; MOUSE CONVULSANT CONC., VOL. % (male CF-1 mice [6]): ≤ 0.25 VOL. %; MOUSE LC50 (male CF-1 mice [7]): < 0.50 VOL. % |
| FCOC(F)(C(F)F)C(F)(F)F (stereo not shown) [XIV] | 2.5 | 9.0 | ADDITIONAL REMARKS: convulsions in dogs (dogs): NON[…] DOGS |
| FCOC(F)(F)C(F)C(F)(F)F (stereo not shown) [XIII] | 2.1 | 6.4 |  |
| FC(F)OC(C(F)(F)F)C(F)(F)F [X] | 2.5 | 12 | ADDITIONAL REMARKS: convulsions in dogs (dogs): NON[…] DOGS |
| FCOCC(F)(F)C(F)(F)F [V, Fluoromethyl 2,2,3,3,3-pentafluoropropyl ether] |  | > 3.0 | ADDITIONAL REMARKS: type of convulsions and other effects (male CF-1 mice [3]): METRAZOLE-LIKE CONVULSIONS; MOUSE CONVULSANT CONC., VOL. % (male CF-1 mice [3]): 1.5 VOL. %; stability to heat in the presence of an alkaline material (Stability to heat; e.g., soda lime): stable to 70 °C; stability to heat (Stability to heat; upon distillation at 760 torr): unstable to heat and decomposed with the formation of hydrogen fluoride |
| COC(F)(F)C(F)(F)C(F)(F)F [XVII] |  | 50 | ADDITIONAL REMARKS: cause of death (male CF-1 mice [2]; mouse): DEATH DUE TO ANOXIA |

Reference: patent publication US3976788A (priority 1974, dated 1976)
